# Results as given in publication PMC12488667, “Orodispersible films containing chestnut shell phenolics for buccal delivery: a preclinical approach for oral mucositis prevention” (Frontiers in Medical Technology, 2025).
# Several values for one entry are separate records, joined by “and”; a condition that tells them apart may be missing. Equal entries are not always repeated. Marks after values point to notes of the source that are not given here.
# What was measured:
# TR146 cells = assay: In vitro permeation, buccal model; format: in vitro ADME, human
# Description: The in vitro permeability of the bioactive compounds present in OFs (n = 9) was determined using a co-culture model composed of TR146 ([31]). The extract and the CS-loaded OFs were added to the apical side of the model as a stock solution. […] The Transepithelial Electrical Resistance (TEER) of the model was evaluated before, during, and at the end of the permeability assay using an EVOM Epithelial Volthometer equipped with a chopstick electrode (World Precision Instruments, Sarasota, FL, USA).
# (§1) The identification and quantification of the phenolic compounds present in the extract and the OFs, as well as the compounds that permeated from the OFs through in vitro and ex vivo assays, were conducted using an LC-ESI-LTQ-Orbitrap-HRMS equipment with an Accela chromatograph (Thermo Scientific, Hemel Hempstead, UK), a photodiode array detector, a quaternary pump, and a temperature-controlled autosampler coupled to a high-resolution LTQ Orbitrap Velos mass spectrometer (Thermo Scientific, Hemel Hempstead, UK) with an ESI source in negative mode ([33], [34]). The system was controlled using the Xcalibur v3.0 software (ThermoFisher Scientific, Hemel Hempstead, UK). Elution was performed on an Acquity™ UPLC® BEH C18 Column (2.1 × 100 mm, i.d., 1.7 µm particle size, Waters Corporation, Wexford, Ireland) maintained at 30°C.
# (§2) Gradient elution was performed with water (A) and acetonitrile (B), both with 0.1% formic acid, with a flow rate and injection volume of 450 µl/min and 5 µl, respectively. The solvent gradient (v/v) of B [t (min), %B] was set as follows: (0, 0), (2, 0), (4, 30), (8, 100), (10, 100), (11, 0), and (14, 0). The samples were analyzed in the full scan mode at a resolving power of 30,000 and m/z 600. Data-dependent MS/MS events were acquired at a resolution of 15,000. Most intense ions were detected via the FTMS mode-triggered data-dependent acquisition mode. Ions that were not sufficiently intense for a data-dependent scan were explored in MSn mode. Precursors were fragmented by collision-induced dissociation using a C-trap with a normalized collision energy (35 V) and an activation time of 10 ms. […] Compounds whose theoretical [M–H]^− values exceeded the MS¹ acquisition range (m/z 100–600) were annotated based on characteristic MSⁿ fragment ions detected within the scan window.
# [1] = Ex vivo permeation, Franz cells; format: in vitro ADME, porcine
# Description: Porcine buccal mucosa was used to evaluate the buccal permeation of the phenolic compounds in the extract and the CS-loaded OFs (n = 9). The porcine buccal mucosa was purchased in a local butcher shop, not requiring ethical approval. A Franz cell assembly (9 mm clear jacketed Franz cell with a flat ground joint, 5 ml receptor volume, and permeation area of 0.785 cm^2; PermeGear, Inc., USA) was used. This experiment followed the methodology described by Rodrigues et al. ([32]). In the Franz apparatus, the porcine buccal mucosa was positioned with the cheek side facing the donor chamber, which contained 500 µl (1,000 μg/ml) of the CS extract or the CS-loaded OFs (two square films (2 × 2 cm) with […] of thickness were dissolved in 4 ml of artificial saliva; donor concentration was normalized to ensure equivalence between the extract solution and the film formulation). The receptor chamber was filled with 5 ml PBS, maintained at 37°C, and stirred continuously at 150 rpm. The volume was maintained through the experiments.
# as §1, §2
# Quantitative analysis was performed by using a validated chromatographic method ([38]).
SMILES,Quantification of permeated compounds (TR146 cells; CS extract),Quantification of permeated compounds (TR146 cells; CS-loaded OFs),"Permeation (%) (TR146 cells; from CS extract, 60 min)",Quantification of permeated compounds ([1]; CS extract),Quantification of permeated compounds ([1]; CS-loaded OFs),"Permeation (%) ([1]; from CS extract, 15 min)","Permeation (%) ([1]; from CS extract, 30 min)","Permeation (%) ([1]; from CS-loaded OFs, 15 min)",further results
COc1cc(C=O)ccc1O [Vanillin],0.70 ± 0.02^a mg/ml,0.44 ± 0.05^a mg/g film,28.43 ± 0.41^b %,,,,,,"Permeation (%) (TR146 cells; from CS extract, 15 min): 8.10 ± 0.02^a %; Permeation (%) (TR146 cells; from CS extract, 30 min): 23.12 ± 0.56^b %; Permeation (%) (TR146 cells; from CS extract, 45 min): 28.35 ± 0.83^b %; Permeation (%) (TR146 cells; from CS extract, 90 min): 42.18 ± 1.08^c %; Permeation (%) (TR146 cells; from CS extract, 120 min): 27.71 ± 0.72^a %; Permeation (%) (TR146 cells; from CS extract, 180 min): 53.91 ± 1.07^d %; Permeation (%) (TR146 cells; from CS extract, 240 min): 52.90 ± 0.73^d %"
N[C@@H](Cc1ccccc1)C(=O)O [L-Phenylalanine],,,,5.52 ± 0.24^b mg/ml,0.42 ± 0.01^a mg/g film,8.67 ± 0.03^a %,8.57 ± 1.47^a %,,
O=c1oc2c(O)c(O)cc3c(=O)oc4c(O)c(O)cc1c4c23 [Ellagic acid],,,,7.15 ± 2.50^b mg/ml,1.27 ± 0.05^a mg/g film,10.61 ± 0.08^a %,6.26% and 6.26 ± 0.75^a %,35.46 ± 0.32^b %,"Permeation (%) ([1]; from CS-loaded OFs, 30 min): 60.75% and 60.75 ± 1.62^c %"
O=C(O)CCCCCC(=O)O [Pimelic acid],,,,26.17 ± 2.25^a mg/ml,30.41 ± 0.01^a mg/g film,65.10 ± 1.87^a %,67.06 ± 2.58^a %,76.61 ± 4.85^a %,
O=C(O)[C@]1(O)C[C@@H](O)[C@@H](O)[C@H](O)C1 [Quinic acid],,,,1.02 ± 0.02^b mg/ml,0.39 ± 0.01^a mg/g film,29.36 ± 1.68^a %,28.33 ± 1.16^a %,70.71 ± 1.52^b %,"Permeation (%) ([1]; from CS-loaded OFs, 30 min): 74.31 ± 1.78^b %"
COc1cc(-c2oc3cc(O)cc(O)c3c(=O)c2O)ccc1O [Isorhamnetin],0.38 ± 0.04^a mg/ml,0.38 ± 0.01^a mg/g film,99.10 ± 2.96^a %,,,,,,"Permeation (%) (TR146 cells; from CS extract, 15 min): 99.26 ± 2.34^a %; Permeation (%) (TR146 cells; from CS extract, 30 min): 99.73 ± 1.83^a %; Permeation (%) (TR146 cells; from CS extract, 45 min): 98.36 ± 3.74^a %; Permeation (%) (TR146 cells; from CS extract, 90 min): 99.00 ± 4.70^a %; Permeation (%) (TR146 cells; from CS extract, 120 min): 98.36 ± 1.07^a %; Permeation (%) (TR146 cells; from CS extract, 180 min): 99.08 ± 2.69^a %; Permeation (%) (TR146 cells; from CS extract, 240 min): 98.36 ± 1.91^a %; Permeation (%) (TR146 cells; from CS extract, 240 min, listed as isorhamnetin): 98.36%; Permeation (%) (TR146 cells; from CS-loaded OFs, 15 min): 105.62 ± 3.71^a %; Permeation (%) (TR146 cells; from CS-loaded OFs, 30 min): 105.51 ± 3.25^a %; Permeation (%) (TR146 cells; from CS-loaded OFs, 45 min): 105.05 ± 2.24^a %; Permeation (%) (TR146 cells; from CS-loaded OFs, 60 min): 101.34 ± 2.95^a %; Permeation (%) (TR146 cells; from CS-loaded OFs, 90 min): 98.29 ± 2.14^a %; Permeation (%) (TR146 cells; from CS-loaded OFs, 120 min): 99.38 ± 1.47^a %; Permeation (%) (TR146 cells; from CS-loaded OFs, 180 min): 98.29 ± 1.94^a %; Permeation (%) (TR146 cells; from CS-loaded OFs, 240 min): 100.20 ± 3.56^a %; Permeation (%) (TR146 cells; from CS-loaded OFs, 240 min, listed as isorhamnetin): 100.20%"
O=c1c(O[C@@H]2O[C@H](CO)[C@H](O)[C@H](O)[C@H]2O)c(-c2ccc(O)c(O)c2)oc2cc(O)cc(O)c12 [Quercetin 3-O-galactoside],0.36 ± 0.01^a mg/ml,0.36 ± 0.01^a mg/g film,49.94 ± 0.98^a %,,,,,,
O=C(CCc1ccc(O)cc1)c1c(O)cc(O)cc1O[C@@H]1O[C@H](CO)[C@@H](O)[C@H](O)[C@H]1O [Phlorizin],,,,1.93± 0.06^a mg/ml,0.87 ± 0.06^a mg/g film,18.69 ± 0.04^a %,17.60 ± 0.30^a %,,
